The first assay deals with human osteosarcoma cells, MG63. Kind of assay: Tumor cell recoding via quantification of pRB and p53 (immunofluorescence staining, ImageJ). Format: cell-based. Conditions: Table 4; MG63; quantification of pRB. How it is done: The cells were first fixed for 20 min with 4% paraformaldehyde/PBS at 4° C. After fixation, the cells were permeabilized in PBS containing 1% Triton X-100 for 15 min. Protein immunofluorescent visualization was performed by first treating the cells with 1% (v/v) specific monoclonal antibodies for 1 hour at 37° C. Then the samples were incubated with Alexa Fluor® 568 or 647 (F(ab′)2 fragment of IgG(H+L)) during 30 min at room temperature. The cell nuclei were counterstained in 20 ng/mL DAPI for 10 min at room temperature.
For this type of quantification the freeware image analysis ImageJ® software was used. The raw image was first converted to an 8-bit file, and then the unsharp mask feature was used (settings 1:0.2) to remove the image background (rolling ball radius 10). After smoothing, the resulting image, which appears similar to the original photomicrograph but with minimal background, was then converted to a binary image by setting a threshold. Threshold values were determined empirically by selecting a setting, which gave the most accurate binary image for a subset of randomly selected photomicrographs. The cell area was determined by manual delineation on raw fluorescent images. Total contact area and mean contact area per cell were calculated by “analyse particules” in ImageJ®. A minimum of 50 cells per condition were analyzed.
Neoplastic cells (in this example osteosarcoma cells) were cultured on pharmaceutical associations comprising PET as a bioactive carrier and one of GFR-binding compounds of SEQ ID NO: 11 to 14, 24 to 26 and 51 to 63. A rapid (24 hours) decrease of the tumor markers was observed (FIG. 7). The adhesion checkpoint then activates the tumor suppressor proteins p53 and pRB. […]
Regarding “ASAAPSSAPTALSATSVLYY (Non-cyclic GFR-binding peptide) [SEQ ID NO: 82]”, the “pRB (%)” value is reported as 19%.
Regarding “ASAAPSSVPQALSSLSILFF (Non-cyclic GFR-binding peptide) [SEQ ID NO: 67]”, the “pRB (%)” value was found to be 15%.
On the same count and under the same terms, then “KVGKASSVPQKLEPLPIVYY (Non-cyclic GFR-binding peptide) [SEQ ID NO: 84]”, with 9%; and “KASKASSVPQKLEPLPIVYY (Non-cyclic GFR-binding peptide) [SEQ ID NO: 85]”, with 10%; and “GIPEPSSTPTKMSPINMLYF (Non-cyclic GFR-binding peptide) [SEQ ID NO: 94]”, with 9%.
As for “KVGKASSVPTKLEPISILYL (Non-cyclic GFR-binding peptide) [SEQ ID NO: 71]”, the “pRB (%)” value stood at 17%.
Turning to “ASAAPSSVPQALRSVKVAKV (Non-cyclic GFR-binding peptide) [SEQ ID NO: 88]”, the “pRB (%)” value stood at 18%.
The same measure, in the same setting: then “RNVQSRPTQVQLSPISILFI (Non-cyclic GFR-binding peptide) [SEQ ID NO: 98]”, with 17%; and “NDEGLESVPTEESSLSILFF (Non-cyclic GFR-binding peptide) [SEQ ID NO: 80]”, with 9%.
Same read-out and setting: then “RVPSTSSAPTKTSATSVLYY (Non-cyclic GFR-binding peptide) [SEQ ID NO: 81]”, with 17%; and “AVPKASSAPTKLEPISILYL (Non-cyclic GFR-binding peptide) [SEQ ID NO: 70]”, with 21%; and “ASAAPSSVPQALEPLTILYY (Non-cyclic GFR-binding peptide) [SEQ ID NO: 77]”, with 15%.
Still for that read-out and setting: to “KIPKASSVPTELSPISVLYK (Non-cyclic GFR-binding peptide) [SEQ ID NO: 87]” belongs 21%; to “KIPKASSTPTELSPINMLYF (Non-cyclic GFR-binding peptide) [SEQ ID NO: 93]”, 7%; to “ASASPSSVSQDLSSLSILFF (Non-cyclic GFR-binding peptide) [SEQ ID NO: 68]”, 14%.
In the case of “NDEGLESVPTEEEPLTILYY (Non-cyclic GFR-binding peptide) [SEQ ID NO: 79]”, the “pRB (%)” value came to 17%.
Still for that read-out and setting: then “YVPKPSSTPTKLSPINMLYF (Non-cyclic GFR-binding peptide) [SEQ ID NO: 66]”, with 8%; and “SSVKSQPSRVHHSPISILFI (Non-cyclic GFR-binding peptide) [SEQ ID NO: 97]”, with 14%.
As for “SIPKASSVPQELEPLPIVYY (Non-cyclic GFR-binding peptide) [SEQ ID NO: 76]”, the “pRB (%)” value is 8%.

Staying with this assay, now noted: Table 5; MG63; quantification of pRB.
Take “ASAAPSSAPTALSATSVLYY (Non-cyclic GFR-binding peptide) [SEQ ID NO: 82]”: the “pRB (%)” value is on record as 19%.
“ASAAPSSVPQALSSLSILFF (Non-cyclic GFR-binding peptide) [SEQ ID NO: 67]”: the “pRB (%)” value was 15%.
Consider “KVGKASSVPQKLEPLPIVYY (Non-cyclic GFR-binding peptide) [SEQ ID NO: 84]”, for which the “pRB (%)” value was 9%.
Take “KASKASSVPQKLEPLPIVYY (Non-cyclic GFR-binding peptide) [SEQ ID NO: 85]”: the “pRB (%)” value amounted to 10%.
As for “GIPEPSSTPTKMSPINMLYF (Non-cyclic GFR-binding peptide) [SEQ ID NO: 94]”, the “pRB (%)” value is 9%.
On the same count and under the same terms, to “KVGKASSVPTKLEPISILYL (Non-cyclic GFR-binding peptide) [SEQ ID NO: 71]” belongs 17%; to “ASAAPSSVPQALRSVKVAKV (Non-cyclic GFR-binding peptide) [SEQ ID NO: 88]”, 18%; to “RNVQSRPTQVQLSPISILFI (Non-cyclic GFR-binding peptide) [SEQ ID NO: 98]”, 17%.
Same read-out and setting: then “NDEGLESVPTEESSLSILFF (Non-cyclic GFR-binding peptide) [SEQ ID NO: 80]”, with 9%.
With “RVPSTSSAPTKTSATSVLYY (Non-cyclic GFR-binding peptide) [SEQ ID NO: 81]”, the “pRB (%)” value worked out at 17%.
On the same count and under the same terms, then “AVPKASSAPTKLEPISILYL (Non-cyclic GFR-binding peptide) [SEQ ID NO: 70]”, with 21%.
Consider “ASAAPSSVPQALEPLTILYY (Non-cyclic GFR-binding peptide) [SEQ ID NO: 77]”, for which the “pRB (%)” value amounted to 15%.
The same measure, in the same setting: then “KIPKASSVPTELSPISVLYK (Non-cyclic GFR-binding peptide) [SEQ ID NO: 87]”, with 21%; and “KIPKASSTPTELSPINMLYF (Non-cyclic GFR-binding peptide) [SEQ ID NO: 93]”, with 7%.
Same read-out and setting: then “ASASPSSVSQDLSSLSILFF (Non-cyclic GFR-binding peptide) [SEQ ID NO: 68]”, with 14%; and “NDEGLESVPTEEEPLTILYY (Non-cyclic GFR-binding peptide) [SEQ ID NO: 79]”, with 17%.
For “YVPKPSSTPTKLSPINMLYF (Non-cyclic GFR-binding peptide) [SEQ ID NO: 66]”, the “pRB (%)” value stood at 8%.
On the same count and under the same terms, to “SSVKSQPSRVHHSPISILFI (Non-cyclic GFR-binding peptide) [SEQ ID NO: 97]” belongs 14%; to “SIPKASSVPQELEPLPIVYY (Non-cyclic GFR-binding peptide) [SEQ ID NO: 76]”, 8%.

For the next assay, the system named is Smad1/5/8 signaling pathway. Kind of assay: Growth factor receptor activation: western blot quantification of phospho-smad1/5/8. Format: cell-based. Conditions: Table 4; human osteosarcoma cells MG63; quantification of western blots of phospho-smad1/5/8. The method, then:
After 24 hours of culture, cells were permeabilized (10% SDS, 25 mM NaCl, 10 nM pepstatin and 10 nM leupeptin in distilled water and loading buffer), boiled for 10 minutes and resolved by reducing PAGE (Invitrogen). Proteins were transferred onto nitrocellulose, blocked, and labeled with HRP-conjugated antibodies (Invitrogen). Integrin αv, α5, +3, α4, β1, β3, β5 and […] were blotted by treating the nitrocellulose with monoclonal anti-integrin (extracellular domain) αv, α5, +3, α4, β1, β3, β5 and β6 antibodies (Santa Cruz Biotechnology). Phosphor-Smad1/5/8 was blotted by treating the nitrocellulose with monoclonal anti-p-Smad1/5/8 (Santa Cruz Biotechnology). For all of the experiments the western blot was performed in triplicate, along with an additional blot for actin and coomassie blue staining to ensure constant protein load among samples.
For the sequence “ASAAPSSAPTALSATSVLYY (Non-cyclic GFR-binding peptide) [SEQ ID NO: 82]”, the “p-Smad1/5/8 (%)” value worked out at 41%.
On the same count and under the same terms, then “ASAAPSSVPQALSSLSILFF (Non-cyclic GFR-binding peptide) [SEQ ID NO: 67]”, with 38%.
Same read-out and setting: to “KVGKASSVPQKLEPLPIVYY (Non-cyclic GFR-binding peptide) [SEQ ID NO: 84]” belongs 33%; to “KASKASSVPQKLEPLPIVYY (Non-cyclic GFR-binding peptide) [SEQ ID NO: 85]”, 22%.
The same measure, in the same setting: to “GIPEPSSTPTKMSPINMLYF (Non-cyclic GFR-binding peptide) [SEQ ID NO: 94]” belongs 39%; to “KVGKASSVPTKLEPISILYL (Non-cyclic GFR-binding peptide) [SEQ ID NO: 71]”, 66%.
Regarding “ASAAPSSVPQALRSVKVAKV (Non-cyclic GFR-binding peptide) [SEQ ID NO: 88]”, the “p-Smad1/5/8 (%)” value worked out at 37%.
As for “RNVQSRPTQVQLSPISILFI (Non-cyclic GFR-binding peptide) [SEQ ID NO: 98]”, the “p-Smad1/5/8 (%)” value was 34%.
As for “NDEGLESVPTEESSLSILFF (Non-cyclic GFR-binding peptide) [SEQ ID NO: 80]”, the “p-Smad1/5/8 (%)” value is 27%.
Still for that read-out and setting: to “RVPSTSSAPTKTSATSVLYY (Non-cyclic GFR-binding peptide) [SEQ ID NO: 81]” belongs 34%; to “AVPKASSAPTKLEPISILYL (Non-cyclic GFR-binding peptide) [SEQ ID NO: 70]”, 67%; to “ASAAPSSVPQALEPLTILYY (Non-cyclic GFR-binding peptide) [SEQ ID NO: 77]”, 55%.
As for “KIPKASSVPTELSPISVLYK (Non-cyclic GFR-binding peptide) [SEQ ID NO: 87]”, the “p-Smad1/5/8 (%)” value was 32%.
In the case of “KIPKASSTPTELSPINMLYF (Non-cyclic GFR-binding peptide) [SEQ ID NO: 93]”, the “p-Smad1/5/8 (%)” value came to 47%.
Turning to “ASASPSSVSQDLSSLSILFF (Non-cyclic GFR-binding peptide) [SEQ ID NO: 68]”, the “p-Smad1/5/8 (%)” value stood at 40%.
On the same count and under the same terms, to “NDEGLESVPTEEEPLTILYY (Non-cyclic GFR-binding peptide) [SEQ ID NO: 79]” belongs 58%.
The same measure, in the same setting: then “YVPKPSSTPTKLSPINMLYF (Non-cyclic GFR-binding peptide) [SEQ ID NO: 66]”, with 38%; and “SSVKSQPSRVHHSPISILFI (Non-cyclic GFR-binding peptide) [SEQ ID NO: 97]”, with 39%; and “SIPKASSVPQELEPLPIVYY (Non-cyclic GFR-binding peptide) [SEQ ID NO: 76]”, with 54%.

(Values after patent publication US20220273759A1, “PHARMACEUTICAL ASSOCIATION FOR CONVERTING A NEOPLASTIC CELL INTO A NON-NEOPLASTIC CELL AND USES THEREOF” (HISTIDE AG, priority 2015, published 2022).)
